Usually inhibition stands for the percentage by which the read-out fell short of the control.

Here are results for six compounds from patent US9199963B2, “Heterocyclic compound” (Takeda Pharmaceutical Company Limited, priority 2013, dated 2015).

The structures appear in SMILES notation.

Series [1] addresses T1, human MCHR1 (Homo sapiens, UniProt Q99705).
T1 construct: expressed in transfected cells; host or cells: CHO dhfr- cells, clone #4
As to the kind of experiment: MCH receptor 1 antagonistic activity using Ca2+ mobilization assay. In kind it is cell-based. The settings on record: test compound 0.1 μM; ligand MCH (4-19) 2 nM; human MCHR1-expressing CHO cells (clone #4); read-out: Inhibition rate % (0.1 μM). The procedure: Measurement of MCH Receptor 1 Antagonistic Activity of Test Compound Using Ca^2+ Mobilization Assay
Using an expression vector plasmid introduced with human MCHR1 gene for expression in animal cells, human MCHR1 gene was introduced into CHO cells (CHO dhfr^−) by Lipofectamine LTX (Invitrogen). The cells were cultured in selection MEMα medium [445 mL of MEMα medium without nucleic acid and added with 5 mL of Penicillin-Streptomycin (Invitrogen) and 50 mL of dialyzed fetal bovine serum]. Colony 24 clones grown in the selection medium, which were human MCHR1 gene-expressing CHO cell candidates, were selected. […] An integrated dispensing function fluorometer (CellLux, PerkinElmer) was used for Ca^2+ mobilization assay. […] The medium was removed, and the cells were washed with phosphate buffered saline (PBS). A Ca^2+ indicator dye reagent (DOJINDO LABORATORIES, Ca screening no-wash kit Fluo4) was added at 100 μL/well, and the dye was allowed to penetrate into the cells for 30 min in an incubator at 5% CO2, 37° C. The plate was set on a plate reader. First, a test compound solution diluted with an assay buffer [10 mM HEPES (pH 7.4), 1× assay buffer containing 0.1% BSA (DOJINDO LABORATORIES, attached to Ca screening no-wash kit Fluo4)] or DMSO solution was added at 50 μL/well, and then ligand MCH (4-19) peptide (final concentration 2 nM) diluted with assay buffer or DMSO was added at 50 μL/well, during which changes in intracellular fluorescence were measured at 2 second intervals.
On the technique in general: Calcium assays in cells follow changes in intracellular calcium, usually with a dye or a luminescent sensor.

Series [2] concerns the target T2, human MCH receptor 1 (MCHR1) (Homo sapiens, UniProt Q99705).
T2 construct: expressed in transfected cells; host or cells: CHO cell clone 57 (described in WO01/82925); membrane fraction
As to the kind of experiment: Human MCH receptor 1 (MCHR1) competitive inhibitory activity using binding assay. The settings on record: test compound 0.1 μM; [125I]-MCH (4-19); human MCHR1-expressing CHO cellular membrane fraction; read-out: Binding inhibition rate % (0.1 μM). The procedure: Determination of Human MCH Receptor 1 (MCHR1) Competitive Inhibitory Activity of Test Compound Using Binding Assay
1. Preparation of Membrane Fraction
In phosphate buffered saline (pH 7.4) supplemented with 5 mM EDTA (ethylenediaminetetraacetic acid) were respectively suspended human MCHR1-expressing CHO cells (1×10^8 cells) and centrifuged. Homogenate buffer (10 mL, 10 mM NaHCO3, 5 mM EDTA, pH 7.5, 0.5 mM PMSF (phenylmethylsulfonyl fluoride), 20 mg/L leupeptin, 4 mg/L E-64, 1 mg/L pepstatin A) was added to the pellets of the cells and, using Polytron Homogenizer, the mixture was homogenated. The supernatant obtained after centrifugation at 400×g for 10 min was further centrifuged at 100,000×g for 1 hr to give precipitate of the membrane fraction. The precipitate was suspended in 2 mL of assay buffer [20 mM Tris-HCl (pH 7.5), 5 mM EDTA, 0.5 mM PMSF, 20 mg/L leupeptin, 4 mg/L E-64, 1 mg/L pepstatin A]. The membrane fractions were suspended in assay buffer to a protein concentration of 2 mg/mL, and after dispensing, preserved at −80° C. and used upon thawing each time when in use.
The MCHR1 ligand binding inhibitory activity of the test compound was determined as follows.
The mixture was reacted with stirring at room temperature for 1 hr, and the plate was set on FilterMate Harvester (PerkinElmer). […] The glass filter plate was dried, MicroScint 0 (PerkinElmer) was added at 25 μL/well, and the resulting radioactivity was measured by TopCount liquid scintillation counter (PerkinElmer). The binding inhibition rate of the test compound was calculated by the following formula. Binding inhibition(%)=100−(radioactivity upon addition of test compound and hot MCH−radioactivity upon addition of cold MCH and hot MCH solution)/(radioactivity upon addition of DMSO solution and hot MCH−radioactivity upon addition of cold MCH and hot MCH solution)×100

The subject of series [3] is male diet-induced obese F344/Jcl rats. The series is described as follows: Anorectic effect using male diet-induced obese F344/Jcl rats. As to conditions: oral, 5 mg/mL suspension in 0.5% methylcellulose at 2 mL/kg, two administrations; food intake for 2 days vs control group. In kind it is in vivo, rat. The procedure:
Evaluation of Anorectic Effect Using Male Diet-Induced Obese F344/Jcl Rats
Male diet-induced obese F344/Jcl rats (41-52 weeks old) fed with a high-fat diet (D12451: Research Diets) from 5 weeks old were used. From before the start of experiment, the rats were singly housed, given a powder high-fat diet (D12451M: Research Diets), and habituated to oral administration with tap water. The food intake from the evening of the day before the start of experiment to the next morning was measured, and the rats were grouped based on both the food intake and the body weight of the previous day. In the evening of the day of the start of experiment and the next day, 0.5% methylcellulose solution was orally administered to the control group, and 0.5% methylcellulose suspension of the test compound (5 mg/mL) was orally administered to the compound administration group at 2 mL/kg (6 per group for both control group and compound administration group). The food intake for 2 days from the initial administration was measured. The food intake inhibition rate of each compound administration group to the control group was calculated.

The target of series [4] is hERG (Homo sapiens, UniProt Q12809). The series is described as follows: hERG activity measurement by IonWorks Quattro. In kind it is cell-based. As to conditions: 5 minutes exposure, hERG stably expressed in CHO cells (CYL3038). For orientation: The hERG channel carries a current that helps repolarise heart muscle cells.
Sequence of hERG (Q12809 whole entry): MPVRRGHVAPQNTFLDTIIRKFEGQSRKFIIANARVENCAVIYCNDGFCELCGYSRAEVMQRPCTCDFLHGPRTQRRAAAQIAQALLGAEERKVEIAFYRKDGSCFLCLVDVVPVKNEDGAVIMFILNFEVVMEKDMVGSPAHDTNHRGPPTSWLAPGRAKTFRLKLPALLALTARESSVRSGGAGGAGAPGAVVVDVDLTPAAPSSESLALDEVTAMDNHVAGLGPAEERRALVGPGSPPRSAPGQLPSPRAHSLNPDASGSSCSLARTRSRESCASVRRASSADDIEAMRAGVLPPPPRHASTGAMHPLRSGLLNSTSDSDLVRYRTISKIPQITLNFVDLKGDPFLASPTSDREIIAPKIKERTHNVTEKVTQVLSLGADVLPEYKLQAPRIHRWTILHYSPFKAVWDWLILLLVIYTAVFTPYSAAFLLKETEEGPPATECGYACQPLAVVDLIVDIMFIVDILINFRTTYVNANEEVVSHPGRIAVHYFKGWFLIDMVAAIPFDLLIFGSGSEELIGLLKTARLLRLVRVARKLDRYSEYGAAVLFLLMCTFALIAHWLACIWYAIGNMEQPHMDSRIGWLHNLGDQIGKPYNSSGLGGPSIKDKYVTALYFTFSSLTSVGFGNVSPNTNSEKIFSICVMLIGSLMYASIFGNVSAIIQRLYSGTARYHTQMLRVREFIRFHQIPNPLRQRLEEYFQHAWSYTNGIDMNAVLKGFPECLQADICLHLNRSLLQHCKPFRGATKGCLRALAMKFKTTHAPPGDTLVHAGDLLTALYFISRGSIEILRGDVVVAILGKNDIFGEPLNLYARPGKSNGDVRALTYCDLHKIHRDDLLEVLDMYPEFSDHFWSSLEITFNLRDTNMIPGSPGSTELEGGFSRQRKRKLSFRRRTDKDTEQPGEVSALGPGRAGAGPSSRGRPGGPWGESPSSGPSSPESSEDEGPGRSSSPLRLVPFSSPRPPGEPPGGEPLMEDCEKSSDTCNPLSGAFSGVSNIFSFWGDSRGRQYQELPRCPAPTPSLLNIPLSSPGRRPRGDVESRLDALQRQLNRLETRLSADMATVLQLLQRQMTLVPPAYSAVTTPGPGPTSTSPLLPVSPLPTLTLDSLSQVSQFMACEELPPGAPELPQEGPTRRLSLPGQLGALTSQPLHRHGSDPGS
Protocol: A cell strain CYL3038 having hERG stably expressed in CHO cells was purchased from Millipore LIMITED. A subculture of CYL3038 was prepared using Ham's F-12 medium containing 10% FBS and 500 μg/mL Geneticin, under the presence of 5% CO2 at 32° C. hERG current inhibition was measured by PPC mode of IonWorks Quattro (Molecular Devices, Inc.). As an extracellular fluid, PBS (+) was used. As an intracellular fluid, 20 mM HEPES buffer (pH 7.3) containing 140 mM KCl, 2 mM MgCl2 and 1 mM EGTA was used, and the cell was perforated by amphotericin. As the voltage protocol, holding potential was set to −80 mV, prepulsevoltage was set to 40 mV (2 seconds) and test pulsevoltage was set to −50 mV (2 seconds). Current values before and after addition of compound are respectively recorded as pre-compound hERG current and post-compound hERG current.

T1 sequence (Q99705 whole entry): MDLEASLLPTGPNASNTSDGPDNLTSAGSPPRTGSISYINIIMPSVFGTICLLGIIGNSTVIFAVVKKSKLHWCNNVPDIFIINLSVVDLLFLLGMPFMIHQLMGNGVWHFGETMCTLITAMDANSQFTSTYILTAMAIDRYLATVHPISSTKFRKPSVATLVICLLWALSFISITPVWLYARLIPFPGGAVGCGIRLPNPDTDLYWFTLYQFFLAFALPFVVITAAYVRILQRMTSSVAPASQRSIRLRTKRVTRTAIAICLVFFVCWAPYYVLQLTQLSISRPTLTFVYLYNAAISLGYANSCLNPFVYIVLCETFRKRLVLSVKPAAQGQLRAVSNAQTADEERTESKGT
T2 sequence (Q99705 whole entry): as above

With `Cc1c2cc(-n3ccc(OCc4csc(C(F)(F)F)c4)cc3=O)ccc2nn1C1CC1` [Example 44, 1-(2-cyclopropyl-3-methyl-2H-indazol-5-yl)-4-{[5-(trifluoromethyl)thiophen-3-yl]methoxy}pyridin-2(1H)-one], the results for the inhibition at 0.1 µM in series [1] and in series [2] were 55% and 77%, respectively. The “Food intake suppression rate (%)” value in series [3] stood at 30.6%.

In the case of `Cc1c2cc(-n3ccc(OCc4ccc(F)cc4)cc3=O)ccc2nn1C1CC1` [Example 6, 1-(2-cyclopropyl-3-methyl-2H-indazol-5-yl)-4-[(4-fluorobenzyl)oxy]pyridin-2(1H)-one], the inhibition at 0.1 µM in series [1] was 70%; in series [2], 72%. In addition, the “Food intake suppression rate (%)” value in series [3] is 26.4%.

Consider `Cc1c2cc(-n3ccc(OCc4csc(C(F)(F)F)n4)cc3=O)ccc2nn1C1CC1` [Example 46, 1-(2-cyclopropyl-3-methyl-2H-indazol-5-yl)-4-{[2-(trifluoromethyl)-1,3-thiazol-4-yl]methoxy}pyridin-2(1H)-one], for which the inhibition at 0.1 µM in series [1] is 78%; in series [2], 50%. In series [3], the “Food intake suppression rate (%)” value came to 13.3%.

As to `Cc1c2cc(-n3ccc(OCc4csc(C(F)(F)F)c4)cc3=O)ccc2nn1C` [Example 22, 1-(2,3-dimethyl-2H-indazol-5-yl)-4-{[5-(trifluoromethyl)thiophen-3-yl]methoxy}pyridin-2(1H)-one], the inhibition at 0.1 µM worked out at 69% in series [1] and 51% in series [2]. Besides, in series [3], the “Food intake suppression rate (%)” value is 50.7%.

For the compound `Cc1c2cc(-n3ccc(OCc4ccc(Cl)cc4)cc3=O)ccc2nn1C` [Example 1, 4-[(4-chlorobenzyl)oxy]-1-(2,3-dimethyl-2H-indazol-5-yl)pyridin-2(1H)-one], the inhibition at 0.1 µM in series [1] was found to be 83%; in series [2], 72%. In series [4], the “% hERG inhibition (10 μM)” value came out at 22.1%. Besides, in series [3], the “Food intake suppression rate (%)” value is reported as 32.1%.

As for `Cc1c2cc(-n3ccc(OCc4ccc(Br)cc4)cc3=O)ccc2nn1C` [Example 25, 4-[(4-bromobenzyl)oxy]-1-(2,3-dimethyl-2H-indazol-5-yl)pyridin-2(1H)-one], the inhibition at 0.1 µM in series [1] stood at 84%; in series [2], 57%. Further, in series [3], the “Food intake suppression rate (%)” value amounted to 59.8%.
